molecular target: T1, NS5B (Hepatitis C virus genotype 1b, UniProt Q9WMX2); test: Polymerase assay, incorporation of radiolabeled GTP with biotinylated oligoG13 primer and polycytidylic acid RNA template; format: biochemical; details: polyC RNA template, biotin-oligoG13 primer, tritiated GTP, 3 nM NS5B, 30° C., 2 hours
T1 construct: 3 nM NS5B, 20 nM polyC RNA template
Experimental: The polymerase activity was also assayed by measuring incorporation of radiolabeled GTP into an RNA product using a biotinylated oligoG13 primer with a polycytidylic acid RNA template. Typically, the assay mixture (40 μL) contains 50 mM HEPES (pH 7.3), 2.5 mM magnesium acetate, 2 mM sodium chloride, 37.5 mM potassium acetate, 5 mM DTT, 0.4 U/mL RNasin, 2.5% glycerol, 3 nM NS5B, 20 nM polyC RNA template, 20 nM biotin-oligoG13 primer, and 0.2 μM tritiated guanosine triphosphate. Test compounds were initially dissolved and diluted in 100% DMSO and further diluted into aqueous buffer, producing a final concentration of 5% DMSO. Typically, compounds were tested at concentrations between 0.2 nM and 10 μM. Reactions were started with addition of tritiated guanosine triphosphate and allowed to continue at 30° C. for 2 hours. Reactions were quenched with 100 μL stop buffer containing 10 mM EDTA and 1 μg/mL streptavidin-coated scintillation proximity beads. Reaction plates were incubated at 4° C. for 10 hours and then incorporation of radioactivity was determined by scintillation counting. The table below lists the IC50 values of compounds determined using this procedure.

T1 sequence (Q9WMX2 2420-3010): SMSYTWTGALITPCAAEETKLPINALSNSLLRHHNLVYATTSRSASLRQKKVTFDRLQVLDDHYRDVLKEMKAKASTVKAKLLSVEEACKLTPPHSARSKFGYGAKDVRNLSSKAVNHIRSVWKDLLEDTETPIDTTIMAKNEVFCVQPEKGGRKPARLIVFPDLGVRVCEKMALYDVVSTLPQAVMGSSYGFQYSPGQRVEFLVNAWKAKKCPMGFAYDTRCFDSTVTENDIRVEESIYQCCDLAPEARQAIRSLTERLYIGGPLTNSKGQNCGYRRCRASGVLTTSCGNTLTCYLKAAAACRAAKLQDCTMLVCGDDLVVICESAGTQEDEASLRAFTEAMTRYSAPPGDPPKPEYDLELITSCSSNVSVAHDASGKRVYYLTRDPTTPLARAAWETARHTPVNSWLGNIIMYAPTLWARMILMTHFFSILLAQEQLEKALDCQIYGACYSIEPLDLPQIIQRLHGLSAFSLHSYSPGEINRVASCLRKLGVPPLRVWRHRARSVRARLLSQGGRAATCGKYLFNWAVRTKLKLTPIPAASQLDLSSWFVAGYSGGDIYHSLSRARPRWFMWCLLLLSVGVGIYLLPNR

| IC50 [nM] | Structure (SMILES) |
| --- | --- |
| 10 | CCC1(CC)C(=O)N2CCCn3c(c(C4CCCCC4)c4ccc(C(=O)O)cc43)-c3ccc(F)c1c32 [Compound 267, 12-cyclohexyl-1,1-diethyl-15-fluoro-2-oxo-1,2,5,6-tetrahydro-4H-[1,5]diazocino[1,2-a:5,4,3-h′i′]diindole-9-carboxylic acid] |
| 21 | O=C(O)c1ccc2c(C3CCCCC3)c3n(c2c1)CCCN1C(=O)C2(CC2)c2cccc-3c21 [Compound 269, 12′-cyclohexyl-2′-oxo-5′,6′-dihydro-4′H-spiro[cyclopropane-1,1′-[1,5]diazocino[1,2-a:5,4,3-h′i′]diindole]-9′-carboxylic acid] |
| 26 | O=C(O)c1ccc2c(C3CCCCC3)c3n(c2c1)CCCN1C(=O)Cc2cccc-3c21 [Compound 270, 12-cyclohexyl-2-oxo-1,2,5,6-tetrahydro-4H-[1,5]diazocino[1,2-a:5,4,3-h′i′]diindole-9-carboxylic acid] |
| 15 | CC1(C)CN2CCCn3c(c(C4CCCCC4)c4ccc(C(=O)O)cc43)-c3cccc1c32 [Compound 271, 12-cyclohexyl-1,1-dimethyl-1,2,5,6-tetrahydro-4H-[1,5]diazocino[1,2-a:5,4,3-h′i′]diindole-9-carboxylic acid] |
| 30 | CN1CCC2(C1)C(=O)N1CCCn3c(c(C4CCCCC4)c4ccc(C(=O)O)cc43)-c3cccc2c31 (centres unmarked) [Compound 272, 12-cyclohexyl-1′-methyl-2-oxo-5,6-dihydro-4H-spiro[1,5-diazocino[1,2-a:5,4,3-h′i′]diindole-1,3′-pyrrolidine]-9-carboxylic acid] |
| 4.39 | NC1CCN2CCn3c(c(C4CCCCC4)c4ccc(C(=O)O)cc43)-c3cccc1c32 (centres unmarked) [Compound 273, 4-Amino-15-cyclohexyl-5,6,8,9-tetrahydro-4H-indolo[1′,2′:4,5][1,4]diazepino[6,7,1-ij]quinoline-12-carboxylic acid] |
| 2.45 | N[C@@H]1CCN2CCn3c(c(C4CCCCC4)c4ccc(C(=O)O)cc43)-c3cccc1c32 [Compound 274, (4R)-4-amino-15-cyclohexyl-5,6,8,9-tetrahydro-4H-indolo[1′,2′:4,5][1,4]diazepino[6,7,1-ij]quinoline-12-carboxylic acid] |
| 10.1 | N[C@H]1CCN2CCn3c(c(C4CCCCC4)c4ccc(C(=O)O)cc43)-c3cccc1c32 [Compound 275] |
| 2.57 | CC(C)CNC1CCN2CCn3c(c(C4CCCCC4)c4ccc(C(=O)O)cc43)-c3cccc1c32 (centres unmarked) [Compound 278] |
| 4.02 | O=C(O)c1ccc2c(C3CCCCC3)c3n(c2c1)CCN1CCC(NC2CCC2)c2cccc-3c21 (centres unmarked) [Compound 279] |
| 4.3 | COCCNC1CCN2CCn3c(c(C4CCCCC4)c4ccc(C(=O)O)cc43)-c3cccc1c32 (centres unmarked) [Compound 283] |
| 6.22 | NCCNC1CCN2CCn3c(c(C4CCCCC4)c4ccc(C(=O)O)cc43)-c3cccc1c32 (centres unmarked) [Compound 284] |
| 4.33 | CCN(CC)C1CCN2CCn3c(c(C4CCCCC4)c4ccc(C(=O)O)cc43)-c3cccc1c32 (centres unmarked) [Compound 286] |
| 2.71 | O=C(O)c1ccc2c(C3CCCCC3)c3n(c2c1)CCN1CCC(N2CCCC2)c2cccc-3c21 (centres unmarked) [Compound 287, 15-Cyclohexyl-4-pyrrolidin-1-yl-5,6,8,9-tetrahydro-4H-indolo[1′,2′:4,5][1,4]diazepino[6,7,1-ij]quinoline-12-carboxylic acid] |
| 1.8 | O=C(O)c1ccc2c(C3CCCCC3)c3n(c2c1)CCN1CCC(N2CCCCC2)c2cccc-3c21 (centres unmarked) [Compound 288] |
| 2.03 | O=C(O)c1ccc2c(C3CCCCC3)c3n(c2c1)CCN1CCC(N2CCOCC2)c2cccc-3c21 (centres unmarked) [Compound 289] |
| 1.62 | CCN(CC)[C@@H]1CCN2CCn3c(c(C4CCCCC4)c4ccc(C(=O)O)cc43)-c3cccc1c32 [Compound 290] |
| 1.94 | CCCN[C@@H]1CCN2CCn3c(c(C4CCCCC4)c4ccc(C(=O)O)cc43)-c3cccc1c32 [Compound 291] |
| 2.02 | CC(C)N[C@@H]1CCN2CCn3c(c(C4CCCCC4)c4ccc(C(=O)O)cc43)-c3cccc1c32 [Compound 292, (4R)-15-cyclohexyl-4-(isopropylamino)-5,6,8,9-tetrahydro-4H-indolo[1′,2′:4,5][1,4]diazepino[6,7,1-ij]quinoline-12-carboxylic acid] |
| 1.71 | CC(=O)N[C@@H]1CCN2CCn3c(c(C4CCCCC4)c4ccc(C(=O)O)cc43)-c3cccc1c32 [Compound 293, (4R)-4-Acetamido-15-cyclohexyl-5,6,8,9-tetrahydro-4H-indolo[1′,2′:4,5][1,4]diazepino[6,7,1-ij]quinoline-12-carboxylic acid] |
| 1.55 | CC(C)(C)OC(=O)N[C@@H]1CCN2CCn3c(c(C4CCCCC4)c4ccc(C(=O)O)cc43)-c3cccc1c32 [Compound 294] |
| 1.01 | CC(C)(C)NC(=O)N[C@@H]1CCN2CCn3c(c(C4CCCCC4)c4ccc(C(=O)O)cc43)-c3cccc1c32 [Compound 296, (4R)-4-[(tert-Butylcarbamoyl)amino]-15-cyclohexyl-5,6,8,9-tetrahydro-4H-indolo[1′,2′:4,5][1,4]diazepino[6,7,1-ij]quinoline-12-carboxylic acid] |
| 1.67 | O=C(NCCN1CCCC1)N[C@@H]1CCN2CCn3c(c(C4CCCCC4)c4ccc(C(=O)O)cc43)-c3cccc1c32 [Compound 297] |
| 7.17 | N[C@@H]1CCN2CCn3c(c(C4CCCCC4)c4ccc(C(=O)NC5CC5)cc43)-c3cccc1c32 [Compound 298, (4R)-4-amino-15-cyclohexyl-N-cyclopropyl-5,6,8,9-tetrahydro-4H-indolo[1′,2′:4,5][1,4]diazepino[6,7,1-ij]quinoline-12-carboxamide] |
| 1 | CN(C)S(=O)(=O)NC(=O)c1ccc2c(C3CCCCC3)c3n(c2c1)CCN1CC[C@@H](N)c2cccc-3c21 [Compound 299, (4R)-4-amino-15-cyclohexyl-N-[(dimethylamino)sulfonyl]-5,6,8,9-tetrahydro-4H-indolo[1′,2′:4,5][1,4]diazepino[6,7,1-ij]quinoline-12-carboxamide] |
| 0.769 | CC(C)N1CCC[C@H]1C(=O)N[C@@H]1CCN2CCn3c(c(C4CCCCC4)c4ccc(C(=O)O)cc43)-c3cccc1c32 [Compound 300, (4R)-15-cyclohexyl-4-[(1-isopropyl-L-prolyl)amino]-5,6,8,9-tetrahydro-4H-indolo[1′,2′:4,5][1,4]diazepino[6,7,1-ij]quinoline-12-carboxylic acid] |
| 3.35 | NCCC1CCN2CCn3c(c(C4CCCCC4)c4ccc(C(=O)O)cc43)-c3cccc1c32 (centres unmarked) [Compound 301, 4-(2-aminoethyl)-15-cyclohexyl-5,6,8,9-tetrahydro-4H-indolo[1′,2′:4,5][1,4]diazepino[6,7,1-ij]quinoline-12-carboxylic acid] |
| 6.81 | NCC[C@H]1CCN2CCn3c(c(C4CCCCC4)c4ccc(C(=O)O)cc43)-c3cccc1c32 [Compound 303] |

| Structure (SMILES) | IC50 [nM] |
| --- | --- |
| CC(C)(C)OC(=O)N[C@H]1CCN2CCn3c(c(C4CCCCC4)c4ccc(C(=O)O)cc43)-c3cccc1c32 [Compound 295, (4S)-4-[(tert-butoxycarbonyl)amino]-15-cyclohexyl-5,6,8,9-tetrahydro-4H-indolo[1′,2′:4,5][1,4]diazepino[6,7,1-ij]quinoline-12-carboxylic acid] | 8.47 |

— patent US20090197856A1, “ANTIVIRAL COMPOUNDS” (Genelabs Technologies, Inc., priority 2007, published 2009)
